# “Also recorded” adds a separate entry of the source. Like-named read-outs stand apart in the source and are kept apart here.
# Key:
# [1] = target: (^3 H)naloxone binding sites; assay: competition binding assay with (3H)naloxone on rat brain membranes; conditions: membranes incubated with (3H)naloxone 1 nM and increasing ligand concentrations; read-out: Affinity constants (Ki nM) in competition assays
# Description: (§1) Membrane preparation: A crude membrane fraction from rat brain (PVG/C strain) was prepared [Mol. Pharm.11 (1975) 340-351 and the protein content was defined [Anal. Biochem. 72(1976) 248-254).
# (§2) The membrane suspension (200-400 μg protein) was incubated with the specific radioligand for 1 hour on ice. Incubations were terminated by rapid filtration under vacuo followed by washing with ice cold tris HCl buffer (50 mM, pH 7,4). Radioactivity was measured in a toluene based scintillation mixture on a LKB Minibeta Liquid Scintillation Spectrophotometer. Nonspecific binding was defined in the presence of 10 μM unlabeled naloxone. All assays were performed in triplicate and repeated several times. Ki values were determined from equilibrium experiments and calculated with the Tshang-Prusov equation. The data were evaluated using the Ligand program [Anal. Biol. Chem. 107 (1980) 220-239](Data shown on Table III/1).
# [2] = target: (^3 H)naloxone binding sites; assay: wash-resistant binding of (3H)naloxone, rat brain membranes; conditions: preincubated with (3H)naloxone 1 nM and test compound; remaining specific binding after several washings; average of 2-4 data; compound.HCl; read-out: Ki (nM), affinity constants
# Description: as §1, §2
# After preincubation a thorough washing was performed. [Life Sci. 32 (1983) 2777-2784]. Control values are represented by the specific binding of (3H)naloxone to membranes preincubated with a buffer and treated in the same way. Heterologous displacement experiments were used to evaluate the affinity of the investigated compounds for (^3 H)naloxone binding sites.
# [3] = test system: rat; assay: analgetic effect, hot plate (rat); type: in vivo
# [4] = test system: rat; assay: analgetic effect, tail flick (rat); type: in vivo
# [5] = test system: mice; assay: analgetic effect, writhing test (mice); type: in vivo
# [6] = test system: rats; assay: sedative (narcosis potentiating) effect, Inactine base narcotic, rats; type: in vivo
# Description: Inactine (35 mg/kg) was used as a base narcotic.
# *ED500 % = dose increasing narcosis to five times the control.
# [7] = test system: rabbits; assay: effect on respiration on conscious rabbits (III.6, type A/B/C tests); type: in vivo; set-up: resp. change ampl.: unit not given here; conditions: for respiration number (in words): small doses
# Description: The method as described above in Example III.5 was used on conscious rabbits of 2,5-3 kg weight. Registration was continued for 3-4 hours. The samples were injected under the skin of the neck and the respiration parameters were registered at intervals of 10 minutes.
# [8] = test system: rat; assay: animal or person; conditions: read-out: algolyt. test (rat) 100% activity
# [9] = test system: rabbits; assay: effects on respiration on conscious rabbits (III.5, Marey-drum); conditions: rabbit, in vivo
# Description: Investigation was carried out on conscious rabbits of both sexes and of 3-4 kg weight by way of a Marey-drum. Frequency and amplitude of respiration were quantitatively evaluated.
# [10] = test system: rat; conditions: dose giving 100% activity
# [11] = test system: mice; assay: physical dependency, jumping test on mice; conditions: treatment 7 x 100 mg/kg ip.; naloxone 50 mg/kg ip.
# [12] = Rattus norvegicus, read-out: hot plate (rat) ED50
# [13] = Rattus norvegicus, read-out: tail flick (rat) ED50
# [14] = Mus musculus, read-out: writhing test (mice) ED50
# [15] = OX 0.5 mg/kg s.c. + naloxone 0.25 mg/kg, 10 min
# [16] = OX 0.5 mg/kg s.c., 10 min (line before naloxone)
# [17] = type A: OX 0.1 mg/kg s.c. +5 mg/kg morphine, 30 min
# [18] = type A: OX 0.1 mg/kg s.c. +5 mg/kg morphine, 40 min
# [19] = type A: OX 0.1 mg/kg s.c., 10 min
# [20] = Rattus norvegicus; read-out: hot plate (rat) ED50
# [21] = Rattus norvegicus; read-out: tail flick (rat) ED50
# [22] = s.c. on rats, Inactine 35 mg/kg, dose as base
# [23] = type A: DP 0.01 mg/kg s.c., 10'
# [24] = type A: DP 0.01 mg/kg s.c., 20'
# [25] = type A: DP 0.025 mg/kg s.c., 10'
# [26] = type A: DP 0.025 mg/kg s.c., 20'
# [27] = type A: DP 0.05 mg/kg s.c., 10'
# [28] = type C: DP 0.25 mg/kg together with morphine 5 mg/kg s.c., 10'
# [29] = type C: DP 0.25 mg/kg together with morphine 5 mg/kg s.c., 20'
# [30] = type C: DP 0.25 mg/kg together with morphine 5 mg/kg s.c., 30'
# [31] = type C: DP 0.25 mg/kg together with morphine 5 mg/kg s.c., 50'
# [32] = OS 0.025 mg/kg s.c. (20 min), morphine 5 mg/kg s.c., 20 min
# [33] = OS 0.025 mg/kg s.c. (30 min), morphine 5 mg/kg s.c., 30 min
# [34] = OS 0.025 mg/kg s.c., 10 min (before morphine)
# [35] = OS 0.50 mg/kg s.c. (30 min), morphine 20 mg/kg s.c., 20 min
# [36] = type A: OP 0.1 mg/kg s.c., 10 min
# [37] = type A: OP 0.5 mg/kg s.c., 10 min
# [38] = type A: OP 0.5 mg/kg s.c., then morphine 5 mg/kg s.c., 10 min
# [39] = type A: OP 0.5 mg/kg s.c., then morphine 5 mg/kg s.c., 60 min
# [40] = type B: morphine 5 mg/kg s.c., then OP 1.0 mg/kg s.c., 20 min
# [41] = type B: morphine 5 mg/kg s.c., then OP 1.0 mg/kg s.c., 30 min
# [42] = type C: OP 0.25 mg/kg with morphine 5 mg/kg s.c., 20 min
# [43] = type C: OP 0.25 mg/kg with morphine 5 mg/kg s.c., 30 min
# [44] = type C: OP 0.25 mg/kg with morphine 10 mg/kg s.c., 10 min
# [45] = type C: OP 0.25 mg/kg with morphine 20 mg/kg s.c., 30 min
compound,measurement,setting,value
"COc1ccc2c3c1O[C@H]1C(=NO)CC[C@@]4(O)[C@@H](C2)N(C)CC[C@]314 [Oxycodone-oxime, 14-HYDROXY-DIHYDROCODEINONE-OXIME]",Ki,[1],32 nM
same,Ki,[2],32 nM
same,ED50,[3]; [12],1.8 mg/kg
same,ED50,[4]; [13],1 mg/kg
same,ED50,[5]; [14],0.11 mg/kg
same,ED500 % (dose increasing narcosis to five times the control),"[6]; rat, in vivo","0,5 mg/kg"
same,potentiation of Inactine narcosis (in words),"[6]; rat, in vivo",most effectively prolongated
same,resp. change ampl.,"[7]; OX 0.005 mg/kg s.c., 30 min",+30
same,resp. change fr/min,"[7]; OX 0.005 mg/kg s.c., 30 min",+30
same,resp. change ampl.,"[7]; OX 0.025 mg/kg s.c., 30 min",0
same,resp. change fr/min,"[7]; OX 0.025 mg/kg s.c., 30 min",+28
same,resp. change ampl.,"[7]; OX 0.1 mg/kg s.c., 30 min",+40
same,resp. change fr/min,"[7]; OX 0.1 mg/kg s.c., 30 min",+47
same,resp. change ampl.,[7]; [15],+50
same,resp. change fr/min,[7]; [15],+50
same,resp. change ampl.,[7]; [16],-50
same,resp. change fr/min,[7]; [16],-50
same,respiration number (in words),[7],considerably increase the respiration number
same,resp. change ampl.,[7]; [17],0
same,resp. change fr/min,[7]; [17],+71
same,resp. change ampl.,[7]; [18],-40
same,resp. change fr/min,[7]; [18],-29
same,resp. change ampl.,[7]; [19],+20
same,resp. change fr/min,[7]; [19],+57
same,ED100,[8],10 mg/kg
COc1ccc2c3c1O[C@H]1C(=NNc4ccccc4)CC[C@H]4[C@@H](C2)N(C)CC[C@]314 [Dihydrocodeinone-phenylhydrazone],Ki,[1],323 nM
same,Ki,[2],323 nM
same,ED50,[3]; [20],2.4 mg/kg
same,ED50,[4]; [21],2.3 mg/kg
same,ED500 % (dose increasing narcosis to five times the control),[6]; [22],"3,5 mg/kg"
same,resp. change ampl.,[7]; [23],0
same,resp. change fr/min,[7]; [23],+85
same,resp. change ampl.,[7]; [24],0
same,resp. change fr/min,[7]; [24],+96
same,resp. change ampl.,[7]; [25],0
same,resp. change fr/min,[7]; [25],+114
same,resp. change ampl.,[7]; [26],0
same,resp. change fr/min,[7]; [26],+114
same,resp. change ampl.,[7]; [27],0
same,resp. change fr/min,[7]; [27],+132
same,resp. change ampl.,[7]; [28],0
same,resp. change fr/min,[7]; [28],+39
same,resp. change ampl.,[7]; [29],0
same,resp. change fr/min,[7]; [29],+19
same,resp. change ampl.,[7]; [30],0
same,resp. change fr/min,[7]; [30],-3
same,resp. change ampl.,[7]; [31],0
same,resp. change fr/min,[7]; [31],-4
same,ED100,[8],10.1 mg/kg
"COc1ccc2c3c1O[C@H]1C(=NNC(N)=O)CC[C@@]4(O)[C@@H](C2)N(C)CC[C@]314 [Oxycodone-semicarbazone, 14-OH-DIHYDROCODEINONE-SEMICARBAZONE (TRANS)]",Ki,[1],588 nM
same,Ki,[2],588 nM
same,ED50,[3]; [12],0.58 mg/kg
same,ED50,[4]; [13],0.35 mg/kg
same,ED50,[5]; [14],0.15 mg/kg
same,ED500 % (dose increasing narcosis to five times the control),"[6]; rat, in vivo","1,5 mg/kg"
same,respiration effect (printed over two lines: morphine-inhibition),[9],inhibition
same,respiration frequency/min.,[9],.uparw.
same,respiration volume,[9],.uparw..dwnarw.
same,resp. change ampl.,"[7]; OS 0.01 mg/kg s.c., 10 min",0
same,resp. change fr/min,"[7]; OS 0.01 mg/kg s.c., 10 min",+48
same,resp. change ampl.,"[7]; OS 0.01 mg/kg s.c., 30 min",+20
same,resp. change fr/min,"[7]; OS 0.01 mg/kg s.c., 30 min",+51
same,resp. change ampl.,[7]; [32],-16
same,resp. change fr/min,[7]; [32],+24
same,resp. change ampl.,[7]; [33],-20
same,resp. change fr/min,[7]; [33],+13
same,resp. change ampl.,[7]; [34],+20
same,resp. change fr/min,[7]; [34],+48
same,resp. change ampl.,"[7]; OS 0.025 mg/kg s.c., 30 min",+20
same,resp. change fr/min,"[7]; OS 0.025 mg/kg s.c., 30 min",+51
same,resp. change ampl.,"[7]; OS 0.05 mg/kg s.c., 10 min",+75
same,resp. change fr/min,"[7]; OS 0.05 mg/kg s.c., 10 min",+50
same,resp. change ampl.,[7]; [35],0
same,resp. change fr/min,[7]; [35],+10
same,resp. change ampl.,"[7]; OS 0.50 mg/kg s.c., 10 min",0
same,resp. change fr/min,"[7]; OS 0.50 mg/kg s.c., 10 min",+36
same,respiration number (in words),[7],considerably increase the respiration number
same,ED100,[8],5 mg/kg
"COc1ccc2c3c1O[C@H]1C(=NO)CC[C@H]4[C@@H](C2)N(C)CC[C@]314 [Dihydrocodeinone-oxime, DIHYDROCODEINON-OXIME]",Ki,[1],52 nM
same,Ki,[2],53 nM
same,ED50,[3]; [20],4.2 mg/kg
same,ED50,[4]; [21],3.7 mg/kg
same,ED50,[5]; Mus musculus; read-out: writhing test (mice) ED50,0.38 mg/kg
same,ED100,[8],25 mg/kg
"CN1CC[C@]23c4c5ccc(O)c4O[C@H]2[C@@H](O)C=C[C@H]3[C@H]1C5 [Morphine, reference compound]",hot plate (rat) ED50,[3]; rat,"3,6 mg/kg"
same,tail flick (rat) ED50,[4]; rat,"1,8 mg/kg"
same,writhing test (mice) ED50,[5]; mice,"0,45 mg/kg"
same,ED500 % (dose increasing narcosis to five times the control),[6]; [22],"1,75 mg/kg"
same,algolyt. test (rat) 100% activity,[10],"15,0 mg/kg"
same,% relation of jumping animals,[11],100%
same,number of jumps/mouse (average),[11],"34,5"
"COc1ccc2c3c1O[C@H]1C(=NNc4ccccc4)CC[C@@]4(O)[C@@H](C2)N(C)CC[C@]314 [Oxycodone-phenylhydrazone, 14-OH-DIHYDROCODEINONE-PHENYLHYDRAZONE (CIS)]",Ki,[1],1150 nM
same,Ki,[2],1150 nM
same,ED50,[3]; [12],0.8 mg/kg
same,ED50,[4]; [13],1.2 mg/kg
same,ED50,[5]; [14],1.2 mg/kg
same,ED500 % (dose increasing narcosis to five times the control),"[6]; rat, in vivo","1,5 mg/kg"
same,influence on the respiratory depression effect of morphine (in words),[9],partially antagonizes the effect of morphine
same,respiration effect,[9]; sc,no change; also recorded: slight stym
same,resp. change ampl.,[7]; [36],+20
same,resp. change fr/min,[7]; [36],+33
same,resp. change ampl.,[7]; [37],0
same,resp. change fr/min,[7]; [37],+16
same,resp. change ampl.,[7]; [38],-20
same,resp. change fr/min,[7]; [38],-17
same,resp. change ampl.,[7]; [39],0
same,resp. change fr/min,[7]; [39],0
same,resp. change ampl.,[7]; [40],+15
same,resp. change fr/min,[7]; [40],-16
same,resp. change ampl.,[7]; [41],+20
same,resp. change fr/min,[7]; [41],-6
same,resp. change ampl.,[7]; [42],+20
same,resp. change fr/min,[7]; [42],+44
same,resp. change ampl.,[7]; [43],+30
same,resp. change fr/min,[7]; [43],+92
same,resp. change ampl.,[7]; [44],+20
same,resp. change fr/min,[7]; [44],+23
same,resp. change ampl.,[7]; [45],0
same,resp. change fr/min,[7]; [45],-8
same,ED100,[8],10 mg/kg
